Results: patent US20240208992A1, “MACROCYCLES AS CFTR MODULATORS” (Idorsia Pharmaceuticals Ltd, priority 2021, published 2024)

Biological target: human F508del-CFTR (Homo sapiens, UniProt P13569, DEL508-508)
Experiment: F508del-CFTR cell surface expression (corrector activity), DiscoveRx ß-galactosidase complementation chemiluminescence assay in recombinant U2OS cell line;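 note: U2OS cells co-expressing ProLink-tagged F508del-CFTR and a membrane-anchored enzyme acceptor, where more surface CFTR restores β-galactosidase activity measured by chemiluminescence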
Conditions: U2OS cell line, 16h compound incubation; for EC50: EC50, F508del-CFTR cell surface expression, geomean values; for Emax: U2OS, in relation to the Emax of the corrector lumacaftor (=100%), arithmetic mean values

Sequence of human F508del-CFTR (P13569 with tags, fused parts or gaps DEL508-508): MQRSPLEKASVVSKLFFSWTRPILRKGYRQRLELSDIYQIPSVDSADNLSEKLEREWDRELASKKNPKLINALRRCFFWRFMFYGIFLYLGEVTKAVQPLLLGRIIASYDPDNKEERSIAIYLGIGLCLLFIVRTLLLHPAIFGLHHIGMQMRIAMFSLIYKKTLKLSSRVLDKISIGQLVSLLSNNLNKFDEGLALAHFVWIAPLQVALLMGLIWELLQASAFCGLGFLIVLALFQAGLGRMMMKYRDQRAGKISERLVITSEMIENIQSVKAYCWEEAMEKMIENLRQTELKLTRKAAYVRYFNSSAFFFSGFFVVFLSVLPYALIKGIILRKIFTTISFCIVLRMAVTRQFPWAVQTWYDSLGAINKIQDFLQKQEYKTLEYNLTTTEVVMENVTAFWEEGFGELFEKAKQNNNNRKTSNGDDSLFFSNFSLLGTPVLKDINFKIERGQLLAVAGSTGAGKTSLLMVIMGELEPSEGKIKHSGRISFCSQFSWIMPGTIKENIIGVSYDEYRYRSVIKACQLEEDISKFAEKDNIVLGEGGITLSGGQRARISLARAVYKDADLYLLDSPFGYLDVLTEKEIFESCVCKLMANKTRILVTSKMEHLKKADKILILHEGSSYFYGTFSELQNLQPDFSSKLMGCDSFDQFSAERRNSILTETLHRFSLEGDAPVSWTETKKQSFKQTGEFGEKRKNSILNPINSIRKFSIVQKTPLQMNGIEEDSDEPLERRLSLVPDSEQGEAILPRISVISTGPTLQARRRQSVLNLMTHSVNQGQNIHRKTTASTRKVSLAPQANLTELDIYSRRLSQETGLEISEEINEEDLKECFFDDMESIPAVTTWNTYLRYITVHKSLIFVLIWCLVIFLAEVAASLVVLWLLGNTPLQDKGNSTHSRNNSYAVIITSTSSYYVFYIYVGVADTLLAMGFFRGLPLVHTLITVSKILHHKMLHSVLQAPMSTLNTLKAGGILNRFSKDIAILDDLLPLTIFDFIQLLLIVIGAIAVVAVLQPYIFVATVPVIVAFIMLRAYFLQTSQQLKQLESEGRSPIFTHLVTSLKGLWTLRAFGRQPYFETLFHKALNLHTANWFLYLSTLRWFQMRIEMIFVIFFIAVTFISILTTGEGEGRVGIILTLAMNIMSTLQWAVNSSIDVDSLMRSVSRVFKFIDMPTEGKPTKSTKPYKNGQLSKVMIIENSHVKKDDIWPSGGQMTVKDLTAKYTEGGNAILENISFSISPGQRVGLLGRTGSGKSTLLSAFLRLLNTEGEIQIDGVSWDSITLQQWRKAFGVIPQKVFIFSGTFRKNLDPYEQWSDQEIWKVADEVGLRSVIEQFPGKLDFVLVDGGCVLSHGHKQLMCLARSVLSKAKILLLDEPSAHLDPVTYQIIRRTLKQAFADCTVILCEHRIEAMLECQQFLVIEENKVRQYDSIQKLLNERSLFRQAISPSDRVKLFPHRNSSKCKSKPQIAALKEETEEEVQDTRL

Cc1cccc2c1C(=O)N[C@H](C(=O)NCCc1ccc3c(c1)OCO3)CC(=O)N(C)[C@@H](CC(C)C)C(=O)N(C)CC(=O)N[C@H](Cc1ccccc1)CO2 [Example 235, (3R,9S,13S)-N-(2-(benzo[d][1,3]dioxol-5-yl)ethyl)-3-benzyl-9-isobutyl-7,10,16-trimethyl-5,8,11,15-tetraoxo-2,3,4,5,6,7,8,9,10,11,12,13,14,15-tetradecahydrobenzo[p][1]oxa[4,7,10,14]tetraazacycloheptadecine-13-carboxamide]
EC50: 825 nM | Emax: 117%

CC(C)C[C@H]1C(=O)N(C)CC(=O)N[C@H](Cc2ccccc2)COc2cc3ccccc3cc2C(=O)N[C@H](C(=O)NCCc2ccc3c(c2)OCO3)CC(=O)N1C [Example 236, (3R,9S,13S)-N-(2-(benzo[d][1,3]dioxol-5-yl)ethyl)-3-benzyl-9-isobutyl-7,10-dimethyl-5,8,11,15-tetraoxo-2,3,4,5,6,7,8,9,10,11,12,13,14,15-tetradecahydronaphtho[2,3-p][1]oxa[4,7,10,14]tetraazacycloheptadecine-13-carboxamide]
EC50: 435 nM | Emax: 126%

COc1cccc(CCNC(=O)[C@@H]2CC(=O)N(C)[C@@H](CC(C)C)C(=O)N(C)CC(=O)N[C@H](Cc3ccccc3)COc3ccc(Cl)cc3C(=O)N2)c1 [Example 237, (3R,9S,13S)-3-benzyl-17-chloro-9-isobutyl-N-(3-methoxyphenethyl)-7,10-dimethyl-5,8,11,15-tetraoxo-2,3,4,5,6,7,8,9,10,11,12,13,14,15-tetradecahydrobenzo[p][1]oxa[4,7,10,14]tetraazacycloheptadecine-13-carboxamide]
EC50: 300 nM | Emax: 128%

COc1cccc(CCNC(=O)[C@@H]2CC(=O)N(C)[C@@H](CC(C)C)C(=O)N(C)CC(=O)N[C@H](Cc3ccccc3)COc3cc4ccccc4cc3C(=O)N2)c1 [Example 238, (3R,9S,13S)-3-benzyl-9-isobutyl-N-(3-methoxyphenethyl)-7,10-dimethyl-5,8,11,15-tetraoxo-2,3,4,5,6,7,8,9,10,11,12,13,14,15-tetradecahydronaphtho[2,3-p][1]oxa[4,7,10,14]tetraazacycloheptadecine-13-carboxamide]
EC50: 375 nM | Emax: 153%

CCc1ccc(CCNC(=O)[C@@H]2CC(=O)N(C)[C@@H](CC(C)C)C(=O)N(C)CC(=O)N[C@H](Cc3ccccc3)COc3cccc(OC)c3C(=O)N2)cc1 [Example 239, (3R,9S,13S)-3-benzyl-N-(4-ethylphenethyl)-9-isobutyl-16-methoxy-7,10-dimethyl-5,8,11,15-tetraoxo-2,3,4,5,6,7,8,9,10,11,12,13,14,15-tetradecahydrobenzo[p][1]oxa[4,7,10,14]tetraazacycloheptadecine-13-carboxamide]
EC50: 514 nM | Emax: 142%

COc1cccc(CCNC(=O)[C@@H]2CC(=O)N(C)[C@@H](CC(C)C)C(=O)N(C)CC(=O)N[C@H](Cc3ccccc3)COc3ccsc3C(=O)N2)c1 [Example 240, (6R,12S,16S)-6-benzyl-12-isobutyl-N-(3-methoxyphenethyl)-10,13-dimethyl-8,11,14,18-tetraoxo-5,6,7,8,9,10,11,12,13,14,15,16,17,18-tetradecahydrothieno[2,3-p][1]oxa[4,7,10,14]tetraazacycloheptadecine-16-carboxamide]
EC50: 1260 nM | Emax: 77%

COc1cccc(CCNC(=O)[C@@H]2CC(=O)N(C)[C@@H](CC(C)C)C(=O)N(C)CC(=O)N[C@H](Cc3ccccc3)COc3nc(C)sc3C(=O)N2)c1 [Example 241, (6R,12S,16S)-6-benzyl-12-isobutyl-N-(3-methoxyphenethyl)-2,10,13-trimethyl-8,11,14,18-tetraoxo-5,6,7,8,9,10,11,12,13,14,15,16,17,18-tetradecahydrothiazolo[5,4-p][1]oxa[4,7,10,14]tetraazacycloheptadecine-16-carboxamide]
EC50: 1660 nM | Emax: 92%

[2H]C([2H])([2H])Oc1cccc2c1C(=O)N[C@H](C(=O)NCCc1ccc3c(c1)OCO3)CC(=O)N(C)[C@@H](CC(C)C)C(=O)N(CCC1CCCCC1)CC(=O)N[C@H](Cc1ccccc1)CO2 [Example 242, (3R,9S,13S)-N-(2-(benzo[d][1,3]dioxol-5-yl)ethyl)-3-benzyl-7-(2-cyclohexylethyl)-9-isobutyl-16-(methoxy-d3)-10-methyl-5,8,11,15-tetraoxo-2,3,4,5,6,7,8,9,10,11,12,13,14,15-tetradecahydrobenzo[p][1]oxa[4,7,10,14]tetraazacycloheptadecine-13-carboxamide]
EC50: 177 nM | Emax: 232%

[2H]C([2H])([2H])Oc1cccc2c1C(=O)N[C@H](C(=O)NCCc1cccc(OC)c1)CC(=O)N(C)[C@@H](CC(C)C)C(=O)N(CCC1CCCCC1)CC(=O)N[C@H](Cc1ccccc1)CO2 [Example 243, (3R,9S,13S)-3-benzyl-7-(2-cyclohexylethyl)-9-isobutyl-16-(methoxy-d3)-N-(3-methoxyphenethyl)-10-methyl-5,8,11,15-tetraoxo-2,3,4,5,6,7,8,9,10,11,12,13,14,15-tetradecahydrobenzo[p][1]oxa[4,7,10,14]tetraazacycloheptadecine-13-carboxamide]
EC50: 181 nM | Emax: 232%

[2H]C([2H])([2H])Oc1cccc(CCNC(=O)[C@@H]2CC(=O)N(C)[C@@H](CC(C)C)C(=O)N(CCC3CCCCC3)CC(=O)N[C@H](Cc3ccccc3)COc3cccc(OC([2H])([2H])[2H])c3C(=O)N2)c1 [Example 244, (3R,9S,13S)-3-benzyl-7-(2-cyclohexylethyl)-9-isobutyl-16-(methoxy-d3)-N-(3-(methoxy-d3)phenethyl)-10-methyl-5,8,11,15-tetraoxo-2,3,4,5,6,7,8,9,10,11,12,13,14,15-tetradecahydrobenzo[p][1]oxa[4,7,10,14]tetraazacycloheptadecine-13-carboxamide]
EC50: 177 nM | Emax: 239%

COc1ccc2c(c1)C(=O)N[C@H](C(=O)NCCc1ccc3c(c1)OCCC3)CC(=O)N(C)[C@@H](CC(C)C)C(=O)N(C)CC(=O)N[C@H](Cc1ccccc1)CO2 [Example 245, (3R,9S,13S)-3-benzyl-N-(2-(chroman-7-yl)ethyl)-9-isobutyl-17-methoxy-7,10-dimethyl-5,8,11,15-tetraoxo-2,3,4,5,6,7,8,9,10,11,12,13,14,15-tetradecahydrobenzo[p][1]oxa[4,7,10,14]tetraazacycloheptadecine-13-carboxamide]
EC50: 260 nM | Emax: 174%

Cc1cccc2c1C(=O)N[C@H](C(=O)NCCc1ccc3c(c1)OCO3)CC(=O)N(C)[C@@H](CC(C)C)C(=O)N(CCC1CCCCC1)CC(=O)N[C@H](Cc1ccccc1)CO2 [Example 246, (3R,9S,13S)-N-(2-(benzo[d][1,3]dioxol-5-yl)ethyl)-3-benzyl-7-(2-cyclohexylethyl)-9-isobutyl-10,16-dimethyl-5,8,11,15-tetraoxo-2,3,4,5,6,7,8,9,10,11,12,13,14,15-tetradecahydrobenzo[p][1]oxa[4,7,10,14]tetraazacycloheptadecine-13-carboxamide]
EC50: 140 nM | Emax: 105%

COc1cccc(CCNC(=O)[C@@H]2CC(=O)N(C)[C@@H](CC(C)C)C(=O)N(CCC3CCCCC3)CC(=O)N[C@H](Cc3ccccc3)COc3cccc(C)c3C(=O)N2)c1 [Example 247, (3R,9S,13S)-3-benzyl-7-(2-cyclohexylethyl)-9-isobutyl-N-(3-methoxyphenethyl)-10,16-dimethyl-5,8,11,15-tetraoxo-2,3,4,5,6,7,8,9,10,11,12,13,14,15-tetradecahydrobenzo[p][1]oxa[4,7,10,14]tetraazacycloheptadecine-13-carboxamide]
EC50: 146 nM | Emax: 111%

COc1ccc2c(c1)C(=O)N[C@H](C(=O)NCCc1ccc3c(c1)OCO3)CC(=O)N(C)[C@@H](CC(C)C)C(=O)N(CCC1CCCCC1)CC(=O)N[C@H](Cc1ccccc1)CO2 [Example 248, (3R,9S,13S)-N-(2-(benzo[d][1,3]dioxol-5-yl)ethyl)-3-benzyl-7-(2-cyclohexylethyl)-9-isobutyl-17-methoxy-10-methyl-5,8,11,15-tetraoxo-2,3,4,5,6,7,8,9,10,11,12,13,14,15-tetradecahydrobenzo[p][1]oxa[4,7,10,14]tetraazacycloheptadecine-13-carboxamide]
EC50: 106 nM | Emax: 191%

COc1cccc(CCNC(=O)[C@@H]2CC(=O)N(C)[C@@H](CC(C)C)C(=O)N(CCC3CCCCC3)CC(=O)N[C@H](Cc3ccccc3)COc3ccc(OC)cc3C(=O)N2)c1 [Example 249, (3R,9S,13S)-3-benzyl-7-(2-cyclohexylethyl)-9-isobutyl-17-methoxy-N-(3-methoxyphenethyl)-10-methyl-5,8,11,15-tetraoxo-2,3,4,5,6,7,8,9,10,11,12,13,14,15-tetradecahydrobenzo[p][1]oxa[4,7,10,14]tetraazacycloheptadecine-13-carboxamide]
EC50: 116 nM | Emax: 175%

CC(C)C[C@H]1C(=O)N(CCC2CCCCC2)CC(=O)N[C@H](Cc2ccccc2)COc2cc3ccccc3cc2C(=O)N[C@H](C(=O)NCCc2ccc3c(c2)OCO3)CC(=O)N1C [Example 250, (3R,9S,13S)-N-(2-(benzo[d][1,3]dioxol-5-yl)ethyl)-3-benzyl-7-(2-cyclohexylethyl)-9-isobutyl-10-methyl-5,8,11,15-tetraoxo-2,3,4,5,6,7,8,9,10,11,12,13,14,15-tetradecahydronaphtho[2,3-p][1]oxa[4,7,10,14]tetraazacycloheptadecine-13-carboxamide]
EC50: 86 nM | Emax: 160%

COc1cccc(CCNC(=O)[C@@H]2CC(=O)N(C)[C@@H](CC(C)C)C(=O)N(CCC3CCCCC3)CC(=O)N[C@H](Cc3ccccc3)COc3cc4ccccc4cc3C(=O)N2)c1 [Example 251, (3R,9S,13S)-3-benzyl-7-(2-cyclohexylethyl)-9-isobutyl-N-(3-methoxyphenethyl)-10-methyl-5,8,11,15-tetraoxo-2,3,4,5,6,7,8,9,10,11,12,13,14,15-tetradecahydronaphtho[2,3-p][1]oxa[4,7,10,14]tetraazacycloheptadecine-13-carboxamide]
EC50: 83 nM | Emax: 159%
